What was measured:
Type in all cases: biochemical
PtmJ = biological target: T1, PtmJ (Streptomyces pactum, UniProt A8R0J5); test: enzymatic glycosylation
T1 sequence (A8R0J5 1-318): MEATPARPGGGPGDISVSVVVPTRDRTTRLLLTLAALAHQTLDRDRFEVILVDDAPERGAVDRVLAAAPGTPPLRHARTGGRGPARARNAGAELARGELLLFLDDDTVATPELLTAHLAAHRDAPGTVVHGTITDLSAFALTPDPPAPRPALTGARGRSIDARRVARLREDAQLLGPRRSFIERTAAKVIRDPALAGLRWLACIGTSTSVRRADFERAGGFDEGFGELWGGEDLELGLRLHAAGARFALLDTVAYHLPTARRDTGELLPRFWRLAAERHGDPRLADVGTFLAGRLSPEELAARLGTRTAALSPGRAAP

PtmN = biological target: T2, PtmN (Streptomyces pactum, UniProt A8R0J9); test: mass spectrometry of product; conditions: NAD+; cofactor recycling as for GlcNAc-3AAP
T2 sequence (A8R0J9 1-351): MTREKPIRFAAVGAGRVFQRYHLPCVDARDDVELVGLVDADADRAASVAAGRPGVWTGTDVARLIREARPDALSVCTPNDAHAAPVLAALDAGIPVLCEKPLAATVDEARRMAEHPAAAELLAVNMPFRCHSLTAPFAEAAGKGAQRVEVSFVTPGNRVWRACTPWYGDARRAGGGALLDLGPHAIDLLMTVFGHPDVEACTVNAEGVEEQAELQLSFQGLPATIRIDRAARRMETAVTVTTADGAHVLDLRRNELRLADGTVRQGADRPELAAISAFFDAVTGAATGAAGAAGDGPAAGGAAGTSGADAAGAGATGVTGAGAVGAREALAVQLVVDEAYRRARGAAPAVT

PtmG = biological target: T3, PtmG (Streptomyces pactum, UniProt A8R0J2); test: mass spectrometry of substrate consumption; conditions: formed in situ by PtmN, PtmA and PtmB; 10 h with PtmG
T3 sequence (A8R0J2 1-378): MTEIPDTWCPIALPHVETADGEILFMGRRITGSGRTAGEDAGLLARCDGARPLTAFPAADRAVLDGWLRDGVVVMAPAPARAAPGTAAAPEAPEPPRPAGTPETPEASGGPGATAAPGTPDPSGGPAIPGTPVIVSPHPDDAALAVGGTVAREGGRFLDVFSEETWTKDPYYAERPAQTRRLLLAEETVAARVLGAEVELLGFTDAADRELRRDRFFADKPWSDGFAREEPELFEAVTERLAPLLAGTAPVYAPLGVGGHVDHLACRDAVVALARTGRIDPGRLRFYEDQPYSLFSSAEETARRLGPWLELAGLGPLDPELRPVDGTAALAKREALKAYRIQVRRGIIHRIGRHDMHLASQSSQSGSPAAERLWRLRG

CC(=O)NCCSC(=O)c1cccc(N)c1 [3ABA-SNAC]
enzymatic glycosylation; product used in the next reactions (PtmJ): The 3ABA-SNAC was first glycosylated with the glycosyltransferase PtmJ

CC(=O)NCCSC(=O)c1cccc(N[C@@H]2O[C@H](CO)[C@@H](O)[C@H](O)[C@H]2NC(C)=O)c1 [compound 15, GlcNAc-3ABA-SNAC]
mass spectrometry of product (PtmN): reaction of GlcNAc-3ABA-SNAC with PtmN showed an oxidation product

CC(=O)N[C@@H]1[C@@H](NC(N)=O)[C@H](O)[C@@H](CO)O[C@H]1Nc1cccc(C(C)=O)c1 [compound 20, N-carbamoylated GlcNAc-3AAP]
mass spectrometry of substrate consumption (PtmG): after incubation with PtmG, the carbamoylated GlcNAc-3AAP was partially consumed

Reference: publication PMC10330135 (Chemistry (Weinheim an der Bergstrasse, Germany), 2023)
